Where two headings read alike, the source gives them in different places.
Tests used:
animals = assay: Adverse side effects in animals; details: in vivo
CYP2C9 = CYP2C9 (Homo sapiens, UniProt P11712); assay: Recombinant CYP inhibition test, CYP2C9; type: in vitro ADME; details: at 10 μM
CYP2D6 = CYP2D6 (Homo sapiens, UniProt P10635); assay: Recombinant CYP inhibition test, CYP2D6; type: in vitro ADME; details: at 10 μM
[1] = tested on: PCP-disrupted PPI in mice; assay: Normalization of PCP-disrupted prepulse inhibition; type: in vivo; details: 6 mg/kg PCP ip
[2] = Microsomal stability, human microsomes; type: in vitro ADME; details: 1h assay
hERG = hERG (Homo sapiens, UniProt Q12809); assay: hERG assay; details: for hERG inhibition: result in words
[3] = Microsomal stability, rat microsomes; type: in vitro ADME; details: 1h assay
CYP3A4 = CYP3A4 (Homo sapiens, UniProt P08684); assay: Recombinant CYP inhibition test, CYP3A4; type: in vitro ADME; details: at 10 μM
human 5-HT2B receptor = human 5-HT2B receptor (Homo sapiens, UniProt P41595); assay: Calcium flux; type: cell-based; details: for 5-HT2B %MAX ± SEM: percent of maximal activation by 5-HT, activation at 10 μM for compounds without EC50 value
human 5-HT2A receptor = human 5-HT2A receptor (Homo sapiens, UniProt P28223); assay: Calcium flux; type: cell-based; details: for 5-HT2A %MAX ± SEM: percent of maximal activation by 5-HT, activation at 10 μM for compounds without EC50 value; for 5-HT2A EC50 ± SEM: HEK-293, calcium flux
[4] = molecular target: T1, human 5-HT2C (INI) receptor (Homo sapiens, UniProt P28335); assay: Calcium flux; type: cell-based; details: for 5-HT2C %MAX ± SEM: percent of maximal activation by 5-HT; for Selectivity 2A/2C / Selectivity 2B/2C: ratio of EC50 values
T1 sequence (P28335 33-458): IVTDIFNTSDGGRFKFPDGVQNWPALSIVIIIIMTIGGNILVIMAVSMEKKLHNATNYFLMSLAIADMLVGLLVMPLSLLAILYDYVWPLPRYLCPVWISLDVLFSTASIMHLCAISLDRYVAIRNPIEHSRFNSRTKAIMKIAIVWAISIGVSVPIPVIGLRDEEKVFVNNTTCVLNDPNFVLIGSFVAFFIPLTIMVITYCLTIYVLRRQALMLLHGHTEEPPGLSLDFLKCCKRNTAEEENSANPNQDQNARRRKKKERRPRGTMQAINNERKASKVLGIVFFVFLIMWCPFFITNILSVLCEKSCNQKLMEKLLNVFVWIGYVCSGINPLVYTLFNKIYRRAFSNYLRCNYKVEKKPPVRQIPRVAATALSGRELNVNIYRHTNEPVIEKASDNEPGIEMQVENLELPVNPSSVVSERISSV

[5] = tested on: PCP-disrupted PPI in mice; details: identical PPI testing paradigm, earlier work; cited from earlier work

human 5-HT2B receptor, sequence (P41595 whole entry): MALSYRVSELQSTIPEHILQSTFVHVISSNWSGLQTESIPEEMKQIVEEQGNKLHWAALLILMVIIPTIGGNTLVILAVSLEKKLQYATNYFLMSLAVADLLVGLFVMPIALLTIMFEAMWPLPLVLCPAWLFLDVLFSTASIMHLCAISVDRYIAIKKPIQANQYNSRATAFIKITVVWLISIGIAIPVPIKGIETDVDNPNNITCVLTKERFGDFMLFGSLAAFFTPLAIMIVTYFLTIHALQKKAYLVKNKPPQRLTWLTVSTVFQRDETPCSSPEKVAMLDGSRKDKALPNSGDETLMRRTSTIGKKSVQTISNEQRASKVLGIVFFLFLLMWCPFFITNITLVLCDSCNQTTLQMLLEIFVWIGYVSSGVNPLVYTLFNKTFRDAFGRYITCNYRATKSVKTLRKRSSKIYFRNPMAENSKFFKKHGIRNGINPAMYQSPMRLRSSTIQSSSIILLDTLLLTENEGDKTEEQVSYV
hERG, sequence (Q12809 whole entry): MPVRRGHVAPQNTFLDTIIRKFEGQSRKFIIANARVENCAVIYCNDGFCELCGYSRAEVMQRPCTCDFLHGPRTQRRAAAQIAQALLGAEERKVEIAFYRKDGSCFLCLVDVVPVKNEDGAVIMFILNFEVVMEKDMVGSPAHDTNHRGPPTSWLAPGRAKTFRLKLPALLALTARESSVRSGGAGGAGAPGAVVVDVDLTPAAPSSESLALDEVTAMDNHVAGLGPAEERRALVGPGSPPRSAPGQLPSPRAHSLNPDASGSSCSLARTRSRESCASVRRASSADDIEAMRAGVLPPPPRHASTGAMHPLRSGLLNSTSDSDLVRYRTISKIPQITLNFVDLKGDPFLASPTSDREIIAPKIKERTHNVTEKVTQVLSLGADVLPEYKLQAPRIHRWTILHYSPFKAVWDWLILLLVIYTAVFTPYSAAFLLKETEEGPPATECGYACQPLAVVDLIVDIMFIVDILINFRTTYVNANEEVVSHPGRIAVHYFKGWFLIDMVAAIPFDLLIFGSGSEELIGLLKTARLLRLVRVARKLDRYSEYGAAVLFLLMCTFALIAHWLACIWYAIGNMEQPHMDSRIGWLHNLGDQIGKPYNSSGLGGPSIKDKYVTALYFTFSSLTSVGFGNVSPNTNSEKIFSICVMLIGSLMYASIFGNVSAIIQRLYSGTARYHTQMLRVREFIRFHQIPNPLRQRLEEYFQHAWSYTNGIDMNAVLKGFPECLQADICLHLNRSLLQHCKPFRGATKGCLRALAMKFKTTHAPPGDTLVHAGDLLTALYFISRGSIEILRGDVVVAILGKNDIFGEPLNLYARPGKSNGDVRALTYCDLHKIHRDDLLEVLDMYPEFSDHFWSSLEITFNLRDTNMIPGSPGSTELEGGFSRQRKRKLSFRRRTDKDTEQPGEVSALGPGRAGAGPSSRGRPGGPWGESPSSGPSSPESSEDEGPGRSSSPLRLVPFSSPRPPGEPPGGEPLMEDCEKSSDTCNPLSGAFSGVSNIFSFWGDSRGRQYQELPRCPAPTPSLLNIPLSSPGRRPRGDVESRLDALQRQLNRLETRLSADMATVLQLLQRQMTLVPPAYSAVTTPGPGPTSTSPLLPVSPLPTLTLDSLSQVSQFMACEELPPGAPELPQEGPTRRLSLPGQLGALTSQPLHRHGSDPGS
human 5-HT2A receptor, sequence (P28223 whole entry): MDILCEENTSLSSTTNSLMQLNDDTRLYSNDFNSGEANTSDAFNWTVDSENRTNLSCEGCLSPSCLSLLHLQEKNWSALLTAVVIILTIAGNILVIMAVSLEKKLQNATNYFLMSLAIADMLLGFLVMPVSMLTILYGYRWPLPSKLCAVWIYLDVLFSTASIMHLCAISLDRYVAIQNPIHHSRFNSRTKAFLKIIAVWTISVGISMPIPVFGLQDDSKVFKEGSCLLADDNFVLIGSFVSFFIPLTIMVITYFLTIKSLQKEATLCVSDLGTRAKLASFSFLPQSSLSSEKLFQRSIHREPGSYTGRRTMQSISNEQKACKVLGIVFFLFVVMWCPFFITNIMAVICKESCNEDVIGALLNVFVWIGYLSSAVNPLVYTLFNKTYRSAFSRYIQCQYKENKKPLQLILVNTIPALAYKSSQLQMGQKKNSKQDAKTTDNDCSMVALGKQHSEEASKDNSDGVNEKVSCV
CYP3A4, sequence (P08684 whole entry): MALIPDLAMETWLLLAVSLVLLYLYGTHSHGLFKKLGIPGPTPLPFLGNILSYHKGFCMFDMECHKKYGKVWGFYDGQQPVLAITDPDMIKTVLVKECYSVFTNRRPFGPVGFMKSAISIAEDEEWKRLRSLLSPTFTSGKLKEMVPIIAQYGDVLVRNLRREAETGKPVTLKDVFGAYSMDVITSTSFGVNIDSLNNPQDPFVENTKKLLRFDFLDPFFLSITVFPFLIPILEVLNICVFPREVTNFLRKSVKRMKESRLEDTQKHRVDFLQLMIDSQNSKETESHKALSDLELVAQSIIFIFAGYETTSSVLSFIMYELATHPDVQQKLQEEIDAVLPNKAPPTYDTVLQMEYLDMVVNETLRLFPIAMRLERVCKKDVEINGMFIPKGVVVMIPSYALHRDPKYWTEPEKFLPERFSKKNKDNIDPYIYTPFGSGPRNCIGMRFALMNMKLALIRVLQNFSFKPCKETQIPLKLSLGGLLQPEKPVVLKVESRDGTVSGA
CYP2D6, sequence (P10635 whole entry): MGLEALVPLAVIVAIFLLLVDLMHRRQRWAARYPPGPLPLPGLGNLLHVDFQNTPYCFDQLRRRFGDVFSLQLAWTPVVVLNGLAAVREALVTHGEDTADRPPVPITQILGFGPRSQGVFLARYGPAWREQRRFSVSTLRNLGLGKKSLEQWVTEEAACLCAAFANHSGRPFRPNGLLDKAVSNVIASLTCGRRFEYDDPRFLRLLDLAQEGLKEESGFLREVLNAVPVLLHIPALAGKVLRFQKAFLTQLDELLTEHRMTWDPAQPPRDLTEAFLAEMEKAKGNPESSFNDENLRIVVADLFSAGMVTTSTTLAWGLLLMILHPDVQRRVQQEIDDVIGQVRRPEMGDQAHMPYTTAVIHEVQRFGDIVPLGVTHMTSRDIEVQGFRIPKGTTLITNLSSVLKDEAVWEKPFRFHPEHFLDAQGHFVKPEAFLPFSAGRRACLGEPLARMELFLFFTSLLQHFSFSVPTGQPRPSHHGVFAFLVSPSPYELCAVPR
CYP2C9, sequence (P11712 whole entry): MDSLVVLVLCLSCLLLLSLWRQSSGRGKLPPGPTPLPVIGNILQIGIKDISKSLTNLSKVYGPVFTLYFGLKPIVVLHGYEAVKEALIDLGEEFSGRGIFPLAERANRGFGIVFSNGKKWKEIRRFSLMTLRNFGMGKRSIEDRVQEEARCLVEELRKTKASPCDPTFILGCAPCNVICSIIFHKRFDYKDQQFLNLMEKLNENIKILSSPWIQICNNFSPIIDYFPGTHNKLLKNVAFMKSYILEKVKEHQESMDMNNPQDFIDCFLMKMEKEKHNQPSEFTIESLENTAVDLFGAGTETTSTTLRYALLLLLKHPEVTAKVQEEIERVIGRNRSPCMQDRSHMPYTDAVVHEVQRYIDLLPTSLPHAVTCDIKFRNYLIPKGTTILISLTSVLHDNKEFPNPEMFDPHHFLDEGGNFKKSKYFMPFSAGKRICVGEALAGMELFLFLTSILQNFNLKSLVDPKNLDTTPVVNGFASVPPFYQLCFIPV

Question: For `NCC1CC1c1cc(F)ccc1OCC1CC1` (single isomer, unassigned; (+)) [(+)-12, trans-[2-(2 cyclopropylmethyloxy-5-fluorophenyl)cyclopropyl]-methylamine], which “Adverse side effects in animals” value (animals) is on record?
Answer: The value was “no adverse side effects”.

Question: What about the CYP2C9 inhibition (CYP2C9) of the same molecule?
Answer: The CYP2C9 inhibition was 19.6%.

Question: And the CYP2D6 inhibition (CYP2D6)?
Answer: The CYP2D6 inhibition was 27.0%.

Question: What about the “Normalization of PCP-disrupted PPI” value ([1]; 5 mg/kg dose level) of the same molecule?
Answer: The value was “still effective”.

Question: And the “Normalization of PCP-disrupted PPI” value ([1]; 10 mg/kg)?
Answer: The value was “able to normalize PCP-disrupted PPI”.

Question: What about the “Normalization of PCP-disrupted PPI (Figure 3)” value ([1]; 30 min pre-treatment, dose not stated in legend) of the same molecule?
Answer: Its value is “effectively normalize PCP-disruption of PPI”.

Question: What about the “Microsomal stability, % left” value [2] of the same molecule?
Answer: The value was 90.5%.

Question: And the hERG inhibition (hERG)?
Answer: The hERG inhibition was “no hERG inhibition was detected”.

Question: What about the “Microsomal stability, % left” value [3] of the same molecule?
Answer: Its value is 66%.

Question: And the CYP3A4 inhibition (CYP3A4; midazolam as substrate)?
Answer: The CYP3A4 inhibition was 21.7%.

Question: What about the CYP3A4 inhibition (CYP3A4; testosterone as substrate) of the same molecule?
Answer: The CYP3A4 inhibition was 25.1%.

Question: What does the source list for `C[C@H]1CNCCc2ccc(Cl)cc21` [2 (Lorcaserin), Lorcaserin]?
Answer: hERG inhibition (hERG): no hERG inhibition was detected; 5-HT2B %MAX ± SEM (human 5-HT2B receptor; first screening campaign): 93% ± 1.2%

Question: For `c1cc2c3c(c1)[C@H]1CCC[C@H]1CN3CCNC2` [3 (Vabicaserin), Vabicaserin], which hERG inhibition (hERG) is on record?
Answer: The hERG inhibition was “no hERG inhibition was detected”.

Question: With `O=C1Nc2cc(Cl)c(Cl)cc2N2CCNCC12` (centres unmarked) [4 (WAY-161503), WAY-161503] as the molecule, how does the “hERG inhibition, concentration value” (hERG; quantity not given) read?
Answer: Its value is 3.6 mM.

Question: And the hERG inhibition (hERG)?
Answer: Its hERG inhibition is “very modest inhibition”.

Question: What about the “5-HT2A %MAX ± SEM” value (human 5-HT2A receptor; first screening campaign) of the same molecule?
Answer: Its value is 80% ± 1.0%.

Question: What about the “5-HT2A %MAX ± SEM” value (human 5-HT2A receptor; second screening campaign) of the same molecule?
Answer: Its value is 79% ± 4.5%.

Question: What about the “5-HT2C %MAX ± SEM” value ([4]; first screening campaign) of the same molecule?
Answer: Its value is 97% ± 1.6%.

Question: And the “Selectivity 2A/2C” value ([4]; first screening campaign)?
Answer: Its value is 70.

Question: And the “Selectivity 2B/2C” value ([4]; first screening campaign)?
Answer: The value was 14.

Question: And the “5-HT2C %MAX ± SEM” value ([4]; second screening campaign)?
Answer: Its value is 94% ± 3.6%.

Question: What about the “Selectivity 2A/2C” value ([4]; second screening campaign) of the same molecule?
Answer: The value was 40.

Question: What about the “Selectivity 2B/2C” value ([4]; second screening campaign) of the same molecule?
Answer: Its value is 11.

Question: And the “5-HT2B %MAX ± SEM” value (human 5-HT2B receptor; first screening campaign)?
Answer: Its value is 92% ± 1.3%.

Question: What about the “5-HT2B %MAX ± SEM” value (human 5-HT2B receptor; second screening campaign) of the same molecule?
Answer: Its value is 86% ± 4.7%.

Question: Which hERG inhibition (hERG) does the source give for `c1cc2c3c(c1)c1c(n3CCNC2)CCCC1` [5 (WAY 629), WAY 629] here?
Answer: The hERG inhibition was “no hERG inhibition was detected”.

Question: What about the “5-HT2A EC50 ± SEM” value (human 5-HT2A receptor; first screening campaign (upper table section)) of the same molecule?
Answer: The value was “NA (NA: Emax ≤ 12%)”.

Question: What about the “5-HT2A %MAX ± SEM” value (human 5-HT2A receptor; first screening campaign) of the same molecule?
Answer: Its value is 1% ± 0.2%.

Question: What about the “5-HT2A EC50 ± SEM” value (human 5-HT2A receptor; second screening campaign (lower table section)) of the same molecule?
Answer: The value was “NA (NA: Emax ≤ 12%)”.

Question: And the “5-HT2A %MAX ± SEM” value (human 5-HT2A receptor; second screening campaign)?
Answer: Its value is 7% ± 2.0%.

Question: What about the “5-HT2C %MAX ± SEM” value ([4]; first screening campaign) of the same molecule?
Answer: Its value is 80% ± 1.1%.

Question: And the “5-HT2C %MAX ± SEM” value ([4]; second screening campaign)?
Answer: Its value is 82% ± 3.5%.

Question: And the “5-HT2B EC50 ± SEM” value (human 5-HT2B receptor; first screening campaign (upper table section), HEK-293, calcium flux)?
Answer: The value was “NA (NA: Emax ≤ 12%)”.

Question: And the “5-HT2B %MAX ± SEM” value (human 5-HT2B receptor; first screening campaign)?
Answer: The value was 6% ± 1.3%.

Question: What about the EC50 (human 5-HT2B receptor; read-out: 5-HT2B EC50, second screening campaign, value in μM) of the same molecule?
Answer: The EC50 was greater than 5 µM.

Question: What about the “5-HT2B %MAX ± SEM” value (human 5-HT2B receptor; second screening campaign) of the same molecule?
Answer: The value was 17% ± 2.7%.

Question: For `CN1CCN(C2=Nc3cc(Cl)ccc3Nc3ccccc32)CC1` [clozapine], which “Normalization of PCP-disrupted PPI” value [5] is on record?
Answer: Its value is “robustly normalizes PCP-disrupted PPI”.
